Assay results taken from patent US7807439B2, “Staphylococcus aureus-specific detection media and identifying and/or counting method using same” (Biomerieux S.A., priority 2001, dated 2010).

What was measured:
Staphylococcus aureus = test: Experiment 7: effect of maltose, summary; format: cell-based; details: in particular critical strains (3, 4, 5 and 6)
Method: (§1) The maltose is solubilized in water at a concentration of, for example, 100 g/l, and then a sufficient volume to obtain the final concentrations above is added to the three molten media. The Staphylococcal strains derived from the bioMérieux internal collection were seeded onto each one of the chromogenic media on their own (closely spaced perpendicular streaks over the entire surface of the dish) using a suspension at 0.5 MacFarland diluted to 1/30000. The dishes were incubated at 37° C. for 48 hours. The colonies formed were examined visually after 18, 24 and 48 hours of incubation and the intensity of coloration of the colonies was marked.

S. aureus 7509008 = test: Experiment 7: effect of maltose on α-glucosidase activity, weak inocula; format: cell-based, Staphylococcus aureus; parameters: key: 0 corresponds to a lack of activity; 0.1 corresponds to the presence of a trace of coloration; 0.5 corresponds to the presence of a very pale coloration; 1 corresponds to the presence of a clear coloration of weak intensity; 1.5 corresponds to the presence of a coloration which is intermediate between colorations 1 and 2; 2 corresponds to the presence of a true coloration of medium intensity; 2.5 corresponds to the presence of a coloration which is intermediate between colorations 2 and 3; 3 corresponds to the presence of an intense coloration; 3.5 corresponds to the presence of a coloration which is intermediate between colorations 3 and 4; 4 corresponds to the presence of a very intense coloration; details: strain 1
Method: as §1, with “marked. The coloration was noted and the intensity of these colorations was marked. The reading scale is the same as that used above for tables 2 and 4.” for “marked.”

SMILES: OC[C@H]1O[C@H](O[C@H]2[C@H](O)[C@@H](O)C(O)O[C@@H]2CO)[C@H](O)[C@@H](O)[C@@H]1O (mixture of isomers) [Maltose, maltose]
- effect on α-glucosidase expression (Staphylococcus aureus): activates the α-glucosidase expression
- Intensity of coloration of the colonies (S. aureus 7509008; 18 h, Maltose 100 mg/l): 1.3
- Intensity of coloration of the colonies (S. aureus 7509008; 18 h, Maltose 300 mg/l): 1.3
- Intensity of coloration of the colonies (S. aureus 7509008; 18 h, Maltose 400 mg/l): 1.7
- Intensity of coloration of the colonies (S. aureus 7509008; 24 h, Maltose 100 mg/l): 1.7
- Intensity of coloration of the colonies (S. aureus 7509008; 24 h, Maltose 300 mg/l): 1.7
- Intensity of coloration of the colonies (S. aureus 7509008; 24 h, Maltose 400 mg/l): 3
- Intensity of coloration of the colonies (S. aureus 7509008; >40 h, Maltose 100 mg/l): 2
- Intensity of coloration of the colonies (S. aureus 7509008; >40 h, Maltose 300 mg/l): 2
- Intensity of coloration of the colonies (S. aureus 7509008; >40 h, Maltose 400 mg/l): 2.7
